The target of experiment [1] is T1, Polyadenylate-binding protein 1 (Homo sapiens, UniProt P11940). Put plainly: PABP1 MLLE–PAM2 binding inhibitor potency, dose response, biochemical, fluorescence polarization, FITC-PAM2 peptide (AID 602259). Type of experiment: functional. As to conditions: read-out: IC50_Mean.
For experiment [2], the target named is T1, Polyadenylate-binding protein 1. In words: PABP1 MLLE–PAM2 interaction inhibitors, dose response, miRNA deadenylation inhibitor project, biochemical, fluorescence polarization, Cy5-PAM2 peptide, secondary (AID 602260). Type of experiment: functional. As to conditions: read-out: IC50_Mean.
The target in experiment [3] is T2, RNA-binding protein pos-1 (Caenorhabditis elegans, UniProt G5EF15).
T2 sequence (G5EF15 whole entry): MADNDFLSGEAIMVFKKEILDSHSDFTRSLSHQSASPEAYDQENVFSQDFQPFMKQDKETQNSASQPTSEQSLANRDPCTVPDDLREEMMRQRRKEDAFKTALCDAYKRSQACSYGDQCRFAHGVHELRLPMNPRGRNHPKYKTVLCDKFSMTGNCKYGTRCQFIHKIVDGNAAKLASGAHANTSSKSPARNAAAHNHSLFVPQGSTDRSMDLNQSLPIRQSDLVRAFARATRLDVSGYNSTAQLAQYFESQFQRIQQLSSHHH
In words: inhibitors of POS-1/mex-3 RNA binding, dose response, biochemical, fluorescence polarization (AID 1964).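 Also: purified POS-1 fused to maltose binding protein made in E. coli; potency of compounds blocking POS-1 binding to fluorescent RNA.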

Experiment [4] addresses T3, Zinc finger protein mex-5 (Caenorhabditis elegans, UniProt Q9XUB2).
T3 sequence (Q9XUB2 whole entry): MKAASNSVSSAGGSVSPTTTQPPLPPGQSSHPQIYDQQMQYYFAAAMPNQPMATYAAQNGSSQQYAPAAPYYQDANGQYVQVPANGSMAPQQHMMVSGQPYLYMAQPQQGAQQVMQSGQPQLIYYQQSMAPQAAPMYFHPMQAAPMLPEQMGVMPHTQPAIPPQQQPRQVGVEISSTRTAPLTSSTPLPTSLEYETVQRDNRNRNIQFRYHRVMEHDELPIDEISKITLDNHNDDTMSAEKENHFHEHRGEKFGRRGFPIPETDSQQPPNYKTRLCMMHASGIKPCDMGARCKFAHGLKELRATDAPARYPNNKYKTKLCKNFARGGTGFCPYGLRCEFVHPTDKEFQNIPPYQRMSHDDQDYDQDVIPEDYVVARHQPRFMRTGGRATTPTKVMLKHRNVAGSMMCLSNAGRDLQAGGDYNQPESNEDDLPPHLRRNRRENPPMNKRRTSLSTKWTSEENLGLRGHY
Put plainly: MEX-5/TCR-2 RNA interaction inhibitors, dose response, biochemical, C. elegans, fluorescence polarization (AID 1960).

Experiment [5] addresses T4, Estrogen receptor (Homo sapiens, UniProt P03372).
T4 sequence (P03372 whole entry): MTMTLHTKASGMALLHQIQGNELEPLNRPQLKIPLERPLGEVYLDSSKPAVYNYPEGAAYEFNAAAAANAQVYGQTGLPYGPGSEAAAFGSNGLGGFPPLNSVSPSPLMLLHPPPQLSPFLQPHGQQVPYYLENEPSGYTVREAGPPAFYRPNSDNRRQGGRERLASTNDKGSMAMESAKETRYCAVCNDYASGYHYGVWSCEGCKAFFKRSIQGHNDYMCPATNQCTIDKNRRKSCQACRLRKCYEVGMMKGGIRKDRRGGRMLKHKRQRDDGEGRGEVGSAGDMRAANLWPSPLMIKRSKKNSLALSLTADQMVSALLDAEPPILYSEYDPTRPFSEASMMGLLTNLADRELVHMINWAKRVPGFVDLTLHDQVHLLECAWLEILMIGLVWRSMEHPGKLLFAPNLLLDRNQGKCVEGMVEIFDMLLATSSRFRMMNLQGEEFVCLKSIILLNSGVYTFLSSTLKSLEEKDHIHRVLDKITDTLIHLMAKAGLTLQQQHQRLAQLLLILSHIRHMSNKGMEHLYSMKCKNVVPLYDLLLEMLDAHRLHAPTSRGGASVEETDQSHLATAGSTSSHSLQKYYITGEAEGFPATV

Experiment [6] deals with Glyceraldehyde-3-phosphate dehydrogenase (Homo sapiens, UniProt P04406).
Glyceraldehyde-3-phosphate dehydrogenase, sequence (P04406 whole entry): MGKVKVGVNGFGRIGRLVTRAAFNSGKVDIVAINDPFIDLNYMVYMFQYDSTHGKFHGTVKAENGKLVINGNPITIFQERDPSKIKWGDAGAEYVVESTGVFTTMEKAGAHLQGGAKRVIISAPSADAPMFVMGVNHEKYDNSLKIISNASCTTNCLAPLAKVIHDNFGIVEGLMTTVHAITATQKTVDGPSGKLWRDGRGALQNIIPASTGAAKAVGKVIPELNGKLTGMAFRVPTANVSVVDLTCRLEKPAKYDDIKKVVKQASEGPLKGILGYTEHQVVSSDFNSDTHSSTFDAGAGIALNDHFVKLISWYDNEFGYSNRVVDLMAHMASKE
Experiment [7] addresses T5, Aminopeptidase N (Plasmodium falciparum FcB1/Columbia, UniProt O96935).
T5 sequence (O96935 whole entry): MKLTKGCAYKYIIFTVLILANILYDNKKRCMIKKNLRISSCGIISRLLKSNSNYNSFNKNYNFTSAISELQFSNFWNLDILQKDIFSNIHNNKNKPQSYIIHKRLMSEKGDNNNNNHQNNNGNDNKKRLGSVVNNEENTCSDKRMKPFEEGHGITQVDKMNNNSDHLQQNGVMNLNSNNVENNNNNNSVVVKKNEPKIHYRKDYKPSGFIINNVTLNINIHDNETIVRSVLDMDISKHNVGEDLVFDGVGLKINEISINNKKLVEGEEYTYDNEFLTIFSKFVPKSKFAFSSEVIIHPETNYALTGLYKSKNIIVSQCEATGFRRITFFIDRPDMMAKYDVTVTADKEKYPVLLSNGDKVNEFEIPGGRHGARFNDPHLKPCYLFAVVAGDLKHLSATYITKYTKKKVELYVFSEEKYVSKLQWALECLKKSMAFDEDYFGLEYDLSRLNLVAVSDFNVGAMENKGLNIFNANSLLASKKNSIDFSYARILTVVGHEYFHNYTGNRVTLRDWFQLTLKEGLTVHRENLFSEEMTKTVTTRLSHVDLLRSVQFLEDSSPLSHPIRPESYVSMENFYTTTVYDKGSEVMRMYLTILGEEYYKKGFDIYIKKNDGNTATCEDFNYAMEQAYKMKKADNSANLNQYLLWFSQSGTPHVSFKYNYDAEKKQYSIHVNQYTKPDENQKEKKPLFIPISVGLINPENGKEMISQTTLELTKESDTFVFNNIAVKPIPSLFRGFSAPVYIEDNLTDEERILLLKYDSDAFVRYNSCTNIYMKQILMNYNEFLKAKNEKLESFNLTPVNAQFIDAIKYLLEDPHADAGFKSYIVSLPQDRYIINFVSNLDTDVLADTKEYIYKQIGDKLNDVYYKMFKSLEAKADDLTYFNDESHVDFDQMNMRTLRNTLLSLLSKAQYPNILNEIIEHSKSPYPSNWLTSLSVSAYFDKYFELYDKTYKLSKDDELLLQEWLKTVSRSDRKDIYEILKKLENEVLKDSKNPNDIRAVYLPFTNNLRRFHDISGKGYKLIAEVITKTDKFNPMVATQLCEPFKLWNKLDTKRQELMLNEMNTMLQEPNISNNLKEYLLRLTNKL
Put plainly: P. falciparum M1AAP inhibitors, biochemical, fluorogenic H-Leu-NHMec substrate, 1536-well (AID 1445). Set-up: species or system Plasmodium falciparum 3D7, 3D7.

The target of experiment [8] is Genome polyprotein (dengue virus type 2, UniProt P29990). In words: Dengue-2 NS5 methyltransferase inhibitors, primary screen, biochemical, confirmation dose response (AID 588689). Type of experiment: functional.
Genome polyprotein, sequence (P29990 2492-3391 limits assumed): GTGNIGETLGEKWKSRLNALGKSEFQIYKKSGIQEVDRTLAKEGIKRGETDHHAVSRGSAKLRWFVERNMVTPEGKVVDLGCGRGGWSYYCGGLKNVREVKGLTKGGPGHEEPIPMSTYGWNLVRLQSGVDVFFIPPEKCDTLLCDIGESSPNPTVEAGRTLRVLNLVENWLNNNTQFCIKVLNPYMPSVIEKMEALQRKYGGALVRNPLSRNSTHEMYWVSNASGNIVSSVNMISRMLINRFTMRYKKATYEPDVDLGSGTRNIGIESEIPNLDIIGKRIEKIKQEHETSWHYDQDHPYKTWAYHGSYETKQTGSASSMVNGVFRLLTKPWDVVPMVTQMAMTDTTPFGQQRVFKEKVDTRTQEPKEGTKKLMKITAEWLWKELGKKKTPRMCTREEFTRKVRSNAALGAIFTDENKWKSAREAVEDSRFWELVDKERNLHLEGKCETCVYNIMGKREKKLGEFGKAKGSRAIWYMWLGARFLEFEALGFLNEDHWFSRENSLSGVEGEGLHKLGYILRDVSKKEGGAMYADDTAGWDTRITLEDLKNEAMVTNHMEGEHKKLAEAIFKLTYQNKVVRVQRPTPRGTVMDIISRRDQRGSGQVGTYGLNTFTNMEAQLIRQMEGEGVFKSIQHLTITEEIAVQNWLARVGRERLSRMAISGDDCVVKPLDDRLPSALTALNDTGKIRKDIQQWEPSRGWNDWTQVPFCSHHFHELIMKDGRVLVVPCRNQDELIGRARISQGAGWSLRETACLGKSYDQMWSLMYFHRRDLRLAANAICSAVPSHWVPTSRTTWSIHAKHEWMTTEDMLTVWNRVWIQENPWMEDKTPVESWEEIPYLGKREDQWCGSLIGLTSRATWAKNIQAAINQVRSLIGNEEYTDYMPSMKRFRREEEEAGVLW
The nature of experiment [9]: microbe, parasite or virus in culture. Type of experiment: functional. The note with it: Mycobacterium tuberculosis.
Experiment [10] can be described thus: THP-1 cell cytotoxicity, dose response, cytotoxicity control for non-replicating M. tuberculosis project (AID 489025). Type of experiment: functional.
A short description of experiment [11]: cells. It is filed as functional.
The nature of experiment [12]: Vero E6 cell cytotoxicity, dose response, cytotoxicity control for non-replicating M. tuberculosis project, secondary assay (AID 492998). It is filed as functional, VeroE6. As to conditions: Vero C1008.
Experiment [13] addresses T6, Heat shock factor protein 1 (Mus musculus, UniProt P38532).
T6 sequence (P38532 whole entry): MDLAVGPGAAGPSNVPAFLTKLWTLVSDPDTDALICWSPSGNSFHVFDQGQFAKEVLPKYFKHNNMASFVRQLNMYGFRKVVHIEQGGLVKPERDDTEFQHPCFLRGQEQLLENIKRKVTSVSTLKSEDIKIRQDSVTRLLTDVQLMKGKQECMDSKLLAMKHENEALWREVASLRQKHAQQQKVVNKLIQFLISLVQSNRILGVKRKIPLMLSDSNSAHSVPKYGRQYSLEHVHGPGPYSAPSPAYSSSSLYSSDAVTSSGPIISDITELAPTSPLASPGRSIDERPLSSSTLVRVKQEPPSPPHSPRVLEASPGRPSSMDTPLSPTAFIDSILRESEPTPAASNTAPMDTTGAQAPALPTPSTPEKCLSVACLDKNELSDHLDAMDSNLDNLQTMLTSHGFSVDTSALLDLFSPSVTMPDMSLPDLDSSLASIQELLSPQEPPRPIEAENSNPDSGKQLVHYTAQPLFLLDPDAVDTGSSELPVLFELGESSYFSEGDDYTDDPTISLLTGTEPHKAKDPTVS
Put plainly: inhibition of MG132-induced HSE-luciferase signal, confirmation, cell-based, NIH3T3, luminescence, dose retest (AID 2382).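 Also: NIH3T3 fibroblasts with HSF1-driven luciferase reporter stressed by proteasome inhibitor MG132; luminescence from HSF1-driven luciferase expression after 8 hours of MG132 stress.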 It is filed as functional.

The subject of experiment [14] is SN12K1. Put plainly: cells. It is filed as functional. The note with it: Homo sapiens.
A short description of experiment [15]: NIH:OVCAR-3 ovarian cancer cell cytotoxicity, dose response, PAX8 inhibitor project, plate reader, dry powder samples (AID 743044). Type of experiment: functional, cell-based.
The target in experiment [16] is Paired box protein Pax-8 (Homo sapiens, UniProt Q06710). Put plainly: inhibitors of PAX8-driven TPO luciferase reporter, dose response, RMG-I cells, cherry-pick (AID 687027).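 Also: luciferase reporter driven by Pax8 target thyroperoxidase promoter measured by SteadyGlo luminescence.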 Type of experiment: functional, cell-based.
Paired box protein Pax-8, sequence (Q06710 whole entry): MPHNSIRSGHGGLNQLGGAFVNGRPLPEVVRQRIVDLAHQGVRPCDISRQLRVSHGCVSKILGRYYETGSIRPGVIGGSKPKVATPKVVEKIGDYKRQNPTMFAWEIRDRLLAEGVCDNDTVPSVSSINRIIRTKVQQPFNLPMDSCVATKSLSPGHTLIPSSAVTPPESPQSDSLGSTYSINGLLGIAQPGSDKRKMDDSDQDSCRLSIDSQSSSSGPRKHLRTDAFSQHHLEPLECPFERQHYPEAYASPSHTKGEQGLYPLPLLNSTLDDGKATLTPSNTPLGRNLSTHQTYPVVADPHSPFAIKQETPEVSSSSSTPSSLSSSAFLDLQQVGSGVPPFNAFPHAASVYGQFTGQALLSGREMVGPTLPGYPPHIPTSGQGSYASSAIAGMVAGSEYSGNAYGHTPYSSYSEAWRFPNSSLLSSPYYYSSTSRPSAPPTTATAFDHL
The nature of experiment [17]: P. falciparum Dd2 growth inhibitors, dose response, SYBR Green, cherry-picked samples (AID 1159567). It is filed as functional, cell-based.

Active and inactive are the calls of the source.

T1 sequence (P11940 whole entry): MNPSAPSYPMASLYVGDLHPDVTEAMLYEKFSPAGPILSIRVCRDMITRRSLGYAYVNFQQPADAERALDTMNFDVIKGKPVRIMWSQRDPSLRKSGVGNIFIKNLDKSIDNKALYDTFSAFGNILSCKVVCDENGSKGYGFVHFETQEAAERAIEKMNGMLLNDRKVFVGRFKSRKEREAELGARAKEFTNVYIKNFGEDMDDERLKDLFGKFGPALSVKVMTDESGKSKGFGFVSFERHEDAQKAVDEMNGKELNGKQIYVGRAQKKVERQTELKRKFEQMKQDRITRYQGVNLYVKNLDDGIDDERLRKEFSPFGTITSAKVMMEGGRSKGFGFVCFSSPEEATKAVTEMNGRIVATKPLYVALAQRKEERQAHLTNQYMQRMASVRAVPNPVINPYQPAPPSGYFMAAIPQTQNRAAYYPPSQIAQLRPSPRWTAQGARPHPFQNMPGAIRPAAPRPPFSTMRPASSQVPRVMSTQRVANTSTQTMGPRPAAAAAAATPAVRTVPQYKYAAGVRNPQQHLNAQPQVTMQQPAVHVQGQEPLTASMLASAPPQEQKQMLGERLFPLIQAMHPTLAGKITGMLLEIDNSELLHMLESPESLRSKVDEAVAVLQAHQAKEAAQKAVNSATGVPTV

On to `Fc1ccc(NCc2cccnc2)cc1F`, for which the figures for the IC50 in [1], in experiment [2] and in [5] were 49.1 µM (inactive), > 66 µM (inactive) and > 50 µM (not active), respectively. The EC50 in experiment [3] was 15.4 µM (active); in experiment [4], 11.2 µM (active).

On to `COc1cccc(N2C(=O)C(Cl)=C(N3CCN(c4ncccn4)CC3)C2=O)c1`, for which the IC50 in experiment [6] was > 50 µM (inconclusive).

Regarding `CCCCCCC(=O)N(O)C1CC(=O)N(c2ccccc2)C1=O` (stereo unspecified), the IC50 in experiment [7] was 66.5 µM (active).

Take `COc1ccccc1-c1cc(C(=O)Nc2sc3c(c2C#N)CCC(C)C3)c2ccccc2n1` (stereo unspecified): the IC50 in experiment [8] was 97.8 µM (active).

As to `Cn1cnc([N+](=O)[O-])c1Sc1ccc(Br)cc1`, the CC50 in experiment [9] is 32.4 µM (active); in experiment [10], 34.4 µM (active); in [12], > 20 µM (active). The IC50 in experiment [11] is 11.5 µM (active).

`CSCCC1NC(=O)NC1=O` (stereo unspecified): the IC50 in experiment [5] is > 50 µM (not active).

For the compound `COc1cc2cc(C(c3nnnn3C3CCCC3)N3CCc4ccccc43)c(=O)[nH]c2cc1OC` (stereo unspecified), the IC50 in experiment [5] is 21.9 µM (active).

On to `Cc1cc(O)nc(-n2nc(C)cc2C)n1`, for which the CC50 was > 40 µM (active) in experiment [10] and > 20 µM (active) in experiment [12]. Besides, the IC50 in experiment [11] is 3.82 µM (active).

For `COc1ccc(N2CCN(C3=C(Cl)C(=O)N(c4cccc(C(F)(F)F)c4)C3=O)CC2)cc1`, the IC50 in experiment [6] was > 50 µM (inconclusive).

For the compound `Cc1c(N2C(=O)C(O)=C(C(=O)c3ccc(Br)cc3)C2c2cccnc2)c(=O)n(-c2ccccc2)n1C` (stereo unspecified), the IC50 in experiment [7] is 38.1 µM (active).

For the compound `O=C(c1ccc(-c2ccc([N+](=O)[O-])cc2)o1)N1CCCCCCC1`, the values for the CC50 in [10] and in experiment [12] were 9 µM (active) and 9.37 µM (active), respectively. Also, the IC50 in [11] is 12.7 µM (active).

With `O=C(O)C(c1ccccc1)N1C(=O)/C(=C/c2cccs2)SC1=S` (stereo unspecified), the results for the IC50 in experiment [8] and in experiment [7] were 46.9 µM (active) and 57.7 µM (active), respectively.

On to `COC(=O)C1=C(O)/C(=C\c2ccc(CNC(=O)C(=O)Nc3ccc(C)c(C)c3)o2)N=C1C`, for which the IC50 in [5] was 19.6 µM (active).

For `CCOC(=O)c1ccsc1NC(=O)CCS(=O)(=O)c1ccccc1`, the CC50 in [10] was 34.5 µM (active); in experiment [12], > 20 µM (active).

As to `COc1ccc(OCC(=O)N2CCN(C(=O)COc3ccc(Br)cc3)CC2)cc1`, in [7], the IC50 is 59.2 µM (active).

In the case of `O=C(O)c1cccc(NC(=S)NC(NC(=O)c2ccco2)C(Cl)(Cl)Cl)c1` (stereo unspecified), the 50% effective concentration (EC50) in experiment [13] is on record as > 195 µM (not active). Besides, the IC50 in experiment [7] is 39.9 µM (active).

As for `CN(C)CCNC(=O)c1cc([N+](=O)[O-])cc2ccc(-c3ccccc3)nc12`, the GI50 in experiment [14] was 3.04 µM (inactive).

For `O=C(C[C@@H]1CC[C@@H]2[C@H](COC[C@@H](O)CN2S(=O)(=O)c2cccc(Cl)c2)O1)Nc1ccc(-c2ccccc2)cc1`, the AC50 in experiment [15] was 18.9 µM (active); in [16], 9.62 µM (active).

On to `COc1cc(/C=c2\sc3nc(-c4ccncc4)nn3c2=O)ccc1OC(C)=O`, for which, in [5], the IC50 is given as 31.7 µM (not active).

For the compound `Cc1ccccc1S(=O)(=O)N(C)C[C@H]1OCc2ccccc2-c2ccccc2C(=O)N([C@@H](C)CO)C[C@H]1C`, the AC50 in experiment [17] is 20.9 µM (active).

Take `N#Cc1cccc(-c2ccc3c(c2)[C@H]2[C@H](CCN2C(=O)c2ccncc2)[C@H](CO)N3)c1`: in experiment [17], the AC50 was 7.86 µM (active).

The values are drawn from ChEMBL document CHEMBL1201862, “PubChem BioAssay data set” (2004).
